Assay results reported in patent US9579406B2, “Phospholipid ether analogs as agents for detecting and locating cancer, and methods thereof” (Cellectar, Inc., priority 2004, dated 2017).

Columns and labels:
[1] = tested on: human PC-3 tumor cells in tibia; experiment: Intratibial PC-3 bone tumor model, radioactivity scan fused with microCT; type: in vivo, NUDE mice; conditions: 4 days following injection
Description: Following in vivo imaging of anesthetized mice, the prostate tumors were removed immediately, and imaged ex vivo on the same scanner (equipped with high resolution 1 mm collimator and 2-D acquisition and analysis software) in order to avoid tissue attenuation associated with the low energy of iodine-125 (FIG. 21). […] In an attempt to simulate bone metastases another experiment was performed wherein human PC-3 tumor cells were implanted into the tibia of immune compromised NUDE mice (n=6) according to a recent reports. Following tumor cell inoculation, mice were scanned serially by high-resolution microCT in order to monitor bone tumor development (FIG. 22). Once bone deterioration was detected, iodine-125 labeled NM404 was administered intravenously via tail vein. Mice were scanned for radioactivity and by microCT 4 days post NM404 administration. Radioactivity scans were fused with microCT scans (FIG. 23) to corroborate NM404 radioactivity and tumor location.

[2] = Acute GLP toxicology, single iv dose, 14 days observation, rats; type: in vivo
Description: Drug vehicle and drug product were provided to Dr. Kostyniak by Dr. Raymond Counsell of the University of Michigan for testing as described in the appended synopses of Study 27 and Study 28. […] This toxicology study was performed under GLP conditions.
This toxicology study was performed under GLP conditions.
The control and test rats were injected intravenously in the lateral tail vein. The rats were injected with the test or control article intravenously at 2 ml/kg of body weight using a 25 gauge needle and a 1-ml syringe. The injections were given by alternating rats from the control group with rats from the test group. The injections were given cautiously over a 30 second to one minute time interval. The injection to control rat #27-01 was given at 9:03 am and last injection to test rat #27-16 was given at 11:01 am.
The rats were observed by LAF personnel for signs of acute toxicity from the time of injection until […]. The rats were weighed five (5) times a week (Monday through Friday) and their body weights, recorded in […]. On Dec. […] A heart puncture was then performed using a 20 gauge needle and a 10 ml syringe to collect the blood samples for the hematological CBC and the clinical blood chemistries. The rats were exsanguinated to cause death. The thymus, heart, lungs, spleen, kidneys, liver, brain, and testes were collected, examined grossly, weighed and sectioned for pathology. The tissue samples (except thymus) were placed in jars of “Z-fix” fixative for histology.
Sixteen (16) Sprague-Dawley rats were received from Harlan-Sprague Dawley, Indianapolis, Ind. […] They were housed at the Laboratory Animal Facility and given food and water ad lib. Each rat was given a two-part number starting with 27 (the study number) and followed by a ‘unique’ number of ‘01’ to ‘16’ (numerical). Each rat was ear punched in the right ear with the unique number of ‘01’ to ‘16’. The control rats were numbered from #27-01 to #27-08 and the test rats were numbered from #27-09 to #27-16. The unique numbers were also applied to each cage indicating which rats were housed within that cage. There were four cages of control rats and four cages of test rats. […] The two groups of eight (8) rats were established by random assignment. The rats were weighed daily until the termination of the study on Day 14.
Safety: On Day 14, the blood samples for both groups will be analyzed for hematology and clinical chemistry. Additionally, the following organs will be removed for pathology report and histology slides: brain, lung, liver, heart, kidney, spleen, and testes. A compilation chart of organ weights with organ/weight ratios for each rat may be compiled.

[3] = Human safety study of unlabeled NM404 in normal volunteers; type: in vivo
Description: Formal toxicology studies of NM404 in male rats and rabbits were performed at the Toxicology Research Center of the State University of New York at Buffalo under the direction of Dr. Paul Kostyniak. Drug vehicle and drug product were provided to Dr. Kostyniak by Dr. Raymond Counsell of the University of Michigan for testing as described in the appended synopses of Study 27 and Study 28. […] Human safety studies of unlabeled NM404 were initiated in normal male humans at a mass of 10 times the anticipated imaging dose and about 21 times the anticipated therapy dose. […] This toxicology study was performed under GLP conditions.
Safety assessment in normal male subjects healthy normal female subjects were carried out and it was determined that a dose level of 3 μg/kg of C-NM-404 is safe to administer to male subjects. […] A dose level of 3 μg/kg of C-NM-404 is safe to administer to female subjects.

[4] = tested on: prostate and A549 lung cancer tumors; experiment: Comparative biodistribution in SCID mouse prostate and A549 lung cancer tumor models; conditions: in vivo
Description: In one such example in a rat mammary tumor model, tumor-to-normal tissue ratios reached a maximum at 96 hours with a tumor-to-blood ratio of 8.6 and tumor-to-muscle ratio of 20:1.
Extensive biodistribution data for the prototype agent ^125I-NM324 in several tumor models has previously been reported. […] For example, in a rat mammary tumor model, tumor-to-normal tissue ratios reached a maximum at 96 hours with a tumor-to-blood ratio of 8.6 and tumor-to-muscle ratio of 20:1. […] Comparative biodistribution data for NM324 and NM404 in SCID mice have been obtained in prostate and A549 lung cancer tumor models.

Glioma L9 and CNS-1 = experiment: Tumor models examined with NM404 (Table 2); type: in vivo, Rat xenograft
Source text: NM404 has now been evaluated in 27 animal tumor models, including several lung, and it is clear that once the agent enters tumor cells, it reaches a metabolic dead end and becomes trapped. […] NM404 is also retained in spontaneous murine lung tumors (FIG. 13). Using ^125I-labeled NM404, the inventors have been able to image mammary and prostate tumors in mice in excess of 60 days. […] Imaging and tissue distribution studies performed in mouse models aimed at determining the uptake characteristics in a wide variety of tumor models are summarized in Table 2.
Although tumor retention can be explained by a lack of metabolic phospholipase enzymes in the tumor cell membranes, the exact mechanism of tumor cell uptake is unknown. […] The inventors are currently evaluating the selectivity of NM404 in a unique mouse tumor model developed at Wisconsin, wherein both preneoplastic hyperplasias and malignant adenocarcinomas form spontaneously in the mammary gland. […] If this initial observation is validated, then via genomic and or proteomic analysis the inventors may be able to identify a key genetic difference between malignant tumors and their non malignant predecessor cells. This could identify a completely new molecular therapeutic target that may be universal for all types of cancer.

[5] = male rats, 2 mg/ml at 2 ml/kg iv, 14 days
[6] = male rats, 2 mg/ml at 2 ml/kg iv, day 14

SMILES	correlation of radioactivity with tibial tumor [1]	acute toxicologic effects (conclusion) [2, 5]	behavior [2, 5]	mean body weights, test versus control group [2, 5]	tail vein injection site reactions [2, 5]	clinical blood chemistries and hematology, t-test versus control [2, 6]	gross examination of tissues [2, 6]	histopathology of organs [2, 6]	toxic effects ([2]; male rats, 4 mg/kg (Study 27))	acute toxicity ([2]; unlabeled, 1200 times the anticipated imaging mass dose)	dose level safe to administer ([3]; female subjects)	dose level safe to administer ([3]; male subjects)	toxicity ([3]; normal male humans, 10 times the anticipated imaging dose)	tumor uptake [4]	NM404 Tumor Localization (Glioma L9 and CNS-1)
C[N+](C)(C)CCOP(=O)([O-])OCCCCCCCCCCCCCCCCCCc1ccc([125I])cc1 [Compound I-125-NM404]	Focal NM404 activity correlates well with tibial PC3 tumor	–	–	–	–	–	–	–	–	–	–	–	–	–	–
C[N+](C)(C)CCOP(=O)([O-])OCCCCCCCCCCCCCCCCCCc1ccc(I)cc1 [NM-404, 18-(4-iodophenyl)-octadecylphosphocholine]	–	No acute toxicologic effects attributable to the test article had been found	No unusual behavior was noted	not significantly different	no adverse tissue reactions were noted	no significant differences found	No gross lesions were noted	no changes in the histopathology of the organs examined that can be attributed to the administration of the test material	no significant toxic effects were noted	no acute toxicities were found	3 µg/kg	3 µg/kg	no toxicity attributable to the drug substance	exceeding 25 % of the injected dose	Yes (Localization defined as >5% injected dose per gram tumor basis based on tissue distribution data)
